# Measured values published in patent EP1126023A1, “METHOD FOR INDUCING CELLULAR IMMUNITY AND CELLS WITH INDUCED CELLULAR IMMUNITY” (MITSUBISHI CHEMICAL CORPORATION, priority 1998, dated 2000).
# Tested on: CD8-positive HLA-A2402-restrictive CTL clones specific for the ErbB2 p63-71 peptide
# Experiment: Stimulating activity of treated dendritic cells on proliferation of CTL clone
# Type: cell-based, human
# Details: HLA-A2402 dendritic cells treated at protein concentration of 100 µg/ml for 3 hours or peptide-pulsed; compared to the non-treated dendritic cells; Fig. 3
# Method: The dendritic cells, prepared from healthy human peripheral blood monocytes having HLA-A2402 as described above, were cultured with the CHP-ErbB2 suspension, the ErbB2 protein alone, the CHP-CAB suspension, or the CAB protein alone each at a protein concentration of 100 µ g/ml for 3 hours. The cells were washed and then further cultured for 15 hours.
# By using these dendritic cells and the ErbB2 p63-71 peptide-pulsed dendritic cells derived from the same individual as stimulating cells, their abilities of stimulation were examined on the aforementioned CD8-positive HLA-A2402-restrictive CTL clones specific for the ErbB2 p63-71 peptide.
substance,measurement,value
"p63-71 peptide: peptide having the 63-71 amino acid sequence of HER2, positive control (TYLPTNASL)",stimulation and proliferation of the CTL clone,significantly stimulate the CTL clone and induce proliferation
